From patent US9550768B2, “Kinase modulation and indications therefor” (PLEXXIKON INC., priority 2011, dated 2017)

system: leukemia cell that express either wild type FLT3 or FLT3-ITD mutations; assay: not given; conditions: cited from earlier work

In the case of `C=CCNC1=C2C[C@@H](C)C[C@H](OC)[C@H](O)[C@@H](C)/C=C(\C)[C@H](OC(N)=O)[C@@H](OC)/C=C\C=C(/C)C(=O)NC(=CC1=O)C2=O` [Compound 17AAG], the “growth of leukemia cells” value is given as “inhibited”.

target: T1, FLT3 (Homo sapiens, UniProt P36888); assay: Flt3 biochemical assay (AlphaScreen, recombinant enzyme); conditions: recombinant FLT3, ATP 100 μM, room temperature, 60 minutes
T1 construct: purchased Invitrogen PV3182
T1 sequence (P36888 564-993 limits assumed): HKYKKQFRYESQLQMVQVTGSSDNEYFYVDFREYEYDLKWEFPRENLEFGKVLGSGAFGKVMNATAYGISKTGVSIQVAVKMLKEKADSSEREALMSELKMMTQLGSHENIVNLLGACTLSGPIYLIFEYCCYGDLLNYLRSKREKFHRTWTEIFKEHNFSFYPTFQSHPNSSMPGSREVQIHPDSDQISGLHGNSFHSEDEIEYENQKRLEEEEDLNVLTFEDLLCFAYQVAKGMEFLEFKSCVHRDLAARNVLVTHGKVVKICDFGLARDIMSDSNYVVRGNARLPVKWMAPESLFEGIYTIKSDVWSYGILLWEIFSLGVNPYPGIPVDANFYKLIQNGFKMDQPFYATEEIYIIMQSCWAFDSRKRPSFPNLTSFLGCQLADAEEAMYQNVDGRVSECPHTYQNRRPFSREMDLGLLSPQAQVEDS
Text: Using AlphaScreen™ technology, the ability of the compounds to affect the catalytic activity of the kinases can be measured quantitatively. The peptide substrate is immobilized by the AlphaScreen™ Streptavidin Donor beads and, upon phosphorylation by a tyrosine kinase, can bind to AlphaScreen™ Anti-Phosphotyrosine (PY20) Acceptor beads. Upon excitation of these beads with laser light at 680 nm, singlet oxygen is produced. This singlet oxygen is rapidly quenched, unless the AlphaScreen™ Anti-Phosphotyrosine (PY20) Acceptor beads are in close proximity, in which case a proximity signal can be measured at 580 nm. In the presence of catalytic activity, there is a very strong proximity signal.
Centrifuge 1 minute, shake to mix, and incubate as follows:
• Mix Streptavidin Donor beads at 6× final concentration in Stop/Detection buffer. • Add 5 μL Streptavidin Donor beads to the reaction plate.

`Clc1ccc(Cl)c(CNc2ccc(Cc3c[nH]c4ncccc34)cn2)c1` [Compound P-0380, (2,5-Dichloro-benzyl)-[5-(1H-pyrrolo[2,3-b]pyridin-3-ylmethyl)-pyridin-2-yl]-amine] and `Cc1cc(F)ccc1CNc1ccc(Cc2c[nH]c3ncccc23)cn1` [Compound P-0372, (4-Fluoro-2-methyl-benzyl)-[5-(1H-pyrrolo[2,3-b]pyridin-3-ylmethyl)-pyridin-2-yl]-amine] cannot be ordered by IC50: < 1000 nM for the first, < 100 nM for the second.

`Fc1ccc(Cl)c(CNc2ncc(Cc3c[nH]c4ncc(Cl)cc34)cn2)c1` [Compound P-0408, (2-Chloro-5-fluoro-benzyl)-[5-(5-chloro-1H-pyrrolo[2,3-b]pyridin-3-ylmethyl)-pyrimidin-2-yl]-amine] and `Fc1ccc(C(F)(F)F)c(CNc2ncc(Cc3c[nH]c4ncc(Cl)cc34)cn2)c1` [Compound P-0391, [5-(5-Chloro-1H-pyrrolo[2,3-b]pyridin-3-ylmethyl)-pyrimidin-2-yl]-(5-fluoro-2-trifluoromethyl-benzyl)-amine] cannot be ordered by IC50: < 1000 nM for the first, < 10000 nM for the second.

`Fc1cncc(CNc2ccc(Cc3c[nH]c4ncc(Cl)cc34)cn2)c1` [Compound P-0324, [5-(5-Chloro-1H-pyrrolo[2,3-b]pyridin-3-ylmethyl)-pyridin-2-yl]-(5-fluoro-pyridin-3-ylmethyl)-amine] and `COc1ccc(CNc2ccc(Cc3c[nH]c4ncc(Cl)cc34)cn2)cn1` [Compound P-0283, [5-(5-Chloro-1H-pyrrolo[2,3-b]pyridin-3-ylmethyl)-pyridin-2-yl]-(6-methoxy-pyridin-3-ylmethyl)-amine] cannot be ordered by IC50: < 1000 nM for the first, < 100 nM for the second.

`CC(Nc1ncc(Cc2c[nH]c3ncc(Cl)cc23)cn1)c1ccc(Cl)cc1` (stereo not shown) [Compound P-0427, [1-(4-Chloro-phenyl)-ethyl]-[5-(5-chloro-1H-pyrrolo[2,3-b]pyridin-3-ylmethyl)-pyrimidin-2-yl]-amine] and `C[C@H](Nc1ncc(Cc2c[nH]c3ncc(Cl)cc23)cn1)c1ccc(F)cc1` [Compound P-0428, [5-(5-Chloro-1H-pyrrolo[2,3-b]pyridin-3-ylmethyl)-pyrimidin-2-yl]-[(S)-1-(4-fluoro-phenyl)-ethyl]-amine] cannot be ordered by IC50: < 1000 nM for the first, < 1000 nM for the second.

`FC(F)(F)c1ccc(CNc2ncc(Cc3c[nH]c4ncc(Cl)cc34)cn2)cn1` [Compound P-0429, [5-(5-Chloro-1H-pyrrolo[2,3-b]pyridin-3-ylmethyl)-pyrimidin-2-yl]-(6-trifluoromethyl-pyridin-3-ylmethyl)-amine] and `Fc1cccc(CNc2ncc(Cc3c[nH]c4ncc(Cl)cc34)cn2)c1` [Compound P-0442, [5-(5-Chloro-1H-pyrrolo[2,3-b]pyridin-3-ylmethyl)-pyrimidin-2-yl]-(3-fluoro-benzyl)-amine] cannot be ordered by IC50: < 100 nM for the first, < 100 nM for the second.

`Fc1ccc(CNc2nc(Cl)c(Cc3c[nH]c4ncc(Cl)cc34)s2)cc1` [Compound P-0195, [4-Chloro-5-(5-chloro-1H-pyrrolo[2,3-b]pyridin-3-ylmethyl)-thiazol-2-yl]-(4-fluoro-benzyl)-amine] and `N#Cc1cnc2[nH]cc(Cc3ccc(NCc4ccc(Cl)cc4)nc3F)c2c1` [Compound P-0432, 3-[6-(4-Chloro-benzylamino)-2-fluoro-pyridin-3-ylmethyl]-1H-pyrrolo[2,3-b]pyridine-5-carbonitrile] cannot be ordered by IC50: < 100 nM for the first, < 100 nM for the second.

`COc1cnc2[nH]cc(Cc3ccc(NCc4ccc(OC)nc4)nc3)c2c1` [Compound P-0332, (6-Methoxy-pyridin-3-ylmethyl)-[5-(5-methoxy-1H-pyrrolo[2,3-b]pyridin-3-ylmethyl)-pyridin-2-yl]-amine] and `COc1ccc(CNc2ccc(Cc3c[nH]c4ncc(C)cc34)cn2)cn1` [Compound P-0282, (6-Methoxy-pyridin-3-ylmethyl)-[5-(5-methyl-1H-pyrrolo[2,3-b]pyridin-3-ylmethyl)-pyridin-2-yl]-amine] cannot be ordered by IC50: < 100 nM for the first, < 100 nM for the second.

`N#Cc1cnc2[nH]cc(Cc3ccc(NCc4cncc(F)c4)nc3F)c2c1` [Compound P-0415, 3-{2-Fluoro-6-[(5-fluoro-pyridin-3-ylmethyl)-amino]-pyridin-3-ylmethyl}-1H-pyrrolo[2,3-b]pyridine-5-carbonitrile] and `N#Cc1cnc2[nH]cc(Cc3ccc(NCc4ccc(C(F)(F)F)nc4)nc3Cl)c2c1` [Compound P-0232, 3-{2-Chloro-6-[(6-trifluoromethyl-pyridin-3-ylmethyl)-amino]-pyridin-3-ylmethyl}-1H-pyrrolo[2,3-b]pyridine-5-carbonitrile] cannot be ordered by IC50: < 1000 nM for the first, < 100 nM for the second.

`CN(C)c1ccccc1CNc1ncc(Cc2c[nH]c3ncc(Cl)cc23)cn1` [Compound P-0449, [5-(5-Chloro-1H-pyrrolo[2,3-b]pyridin-3-ylmethyl)-pyrimidin-2-yl]-(2-dimethylamino-benzyl)-amine] and `COc1ccccc1CNc1ncc(Cc2c[nH]c3ncc(Cl)cc23)cn1` [Compound P-0433, [5-(5-Chloro-1H-pyrrolo[2,3-b]pyridin-3-ylmethyl)-pyrimidin-2-yl]-(2-methoxy-benzyl)-amine] cannot be ordered by IC50: < 10 nM for the first, < 1000 nM for the second.

`CCc1ccccc1CNc1ccc(Cc2c[nH]c3ncccc23)cn1` [Compound P-0383, (2-Ethyl-benzyl)-[5-(1H-pyrrolo[2,3-b]pyridin-3-ylmethyl)-pyridin-2-yl]-amine] and `CNc1ncccc1CNc1ccc(Cc2c[nH]c3ncccc23)cn1` [Compound P-0385, Methyl-(3-{[5-(1H-pyrrolo[2,3-b]pyridin-3-ylmethyl)-pyridin-2-ylamino]-methyl}-pyridin-2-yl)-amine] cannot be ordered by IC50: < 1000 nM for the first, < 1000 nM for the second.

`CN(C)c1ncccc1CNc1ccc(Cc2c[nH]c3ncccc23)cn1` [Compound P-0399, Dimethyl-(3-{[5-(1H-pyrrolo[2,3-b]pyridin-3-ylmethyl)-pyridin-2-ylamino]-methyl}-pyridin-2-yl)-amine] and `COc1ccc(CNc2ccc(Cc3c[nH]c4ncccc34)cn2)c(OC)n1` [Compound P-0370, (2,6-Dimethoxy-pyridin-3-ylmethyl)-[5-(1H-pyrrolo[2,3-b]pyridin-3-ylmethyl)-pyridin-2-yl]-amine] cannot be ordered by IC50: < 100 nM for the first, < 100 nM for the second.

`Fc1cnc2[nH]cc(Cc3ccc(NCc4c(F)cccc4F)nc3)c2c1` [Compound P-0333, (2,6-Difluoro-benzyl)-[5-(5-fluoro-1H-pyrrolo[2,3-b]pyridin-3-ylmethyl)-pyridin-2-yl]-amine] and `COc1cnc2[nH]cc(Cc3ccc(NCc4cc(F)ccc4F)nc3)c2c1` [Compound P-0330, (2,5-Difluoro-benzyl)-[5-(5-methoxy-1H-pyrrolo[2,3-b]pyridin-3-ylmethyl)-pyridin-2-yl]-amine] cannot be ordered by IC50: < 10000 nM for the first, < 1000 nM for the second.

`COc1cnc2[nH]cc(Cc3ccc(NCc4ccccc4C(F)(F)F)nc3)c2c1` [Compound P-0326, [5-(5-Methoxy-1H-pyrrolo[2,3-b]pyridin-3-ylmethyl)-pyridin-2-yl]-(2-trifluoromethyl-benzyl)-amine] and `COc1cnc2[nH]cc(Cc3ccc(NCc4ccc(C(F)(F)F)nc4)nc3F)c2c1` [Compound P-0187, [6-Fluoro-5-(5-methoxy-1H-pyrrolo[2,3-b]pyridin-3-ylmethyl)-pyridin-2-yl]-(6-trifluoromethyl-pyridin-3-ylmethyl)-amine] cannot be ordered by IC50: < 100 nM for the first, < 10 nM for the second.

With `COc1ccc(CNc2ccc(Cc3c[nH]c4ncc(C#N)cc34)cn2)cn1` [Compound P-0284, 3-{6-[(6-Methoxy-pyridin-3-ylmethyl)-amino]-pyridin-3-ylmethyl}-1H-pyrrolo[2,3-b]pyridine-5-carbonitrile] the IC50 was < 1000 nM.
